Measurements taken from patent US6620828B2, “Thiazole compounds and pharmaceutical compositions for inhibiting protein kinases and methods for their use” (Agouron Pharmaceuticals, Inc., priority 1999, dated 2003).
Several values for one entry are separate records, joined by “and”; a condition that tells them apart may be missing. Identical values can stand only once.

Assays:
[1] = molecular target: T1, phosphorylated VEGF-R2Δ50 (Homo sapiens, UniProt P35968, DEL940-989/E990V); test: VEGF-R2 ELISA assay; format: biochemical; details: Table 2; * determined with ELISA assay; read-out: FLVK-P Ki
T1 construct: VEGF-R2Δ50 contains residues 806-939 and 990-1171; made in house; host or cells: baculovirus/insect cells
In short: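 Pre-autophosphorylated human VEGF-R2Δ50 (residues 806-939/990-1171, E990V; baculovirus) at 0.8 nM was run with 2 μM biotin-gastrin(1-17), 20 μM ATP, 26 mM MgCl2, 2 mM MnCl2, pH 7.5 Hepes. Phosphopeptide was captured on streptavidin and detected by anti-pTyr-HRP/ABTS at 405 nm; Ki came from activity at varying compound concentrations.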

CDK2/Cyclin A complex = CDK2/Cyclin A complex (Homo sapiens, UniProt P24941); test: CDK2/Cyclin A assay; format: biochemical; details: Table 2
In short: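 Radiometric assay: 150 nM CDK2/cyclin A (insect-cell CDK2, truncated cyclin A) phosphorylates His-tagged Rb fragment (residues 386-928) with 25 μM ATP plus [32P]ATP, pH 7.4 HEPES, 2% DMSO, 30 °C for 20 min. Filter-captured product counted by phosphorimager; apparent Ki from competitive or tight-binding inhibition fits.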

CDK4/Cyclin D3 complex = molecular target: T2, CDK4/Cyclin D3 complex (Homo sapiens, UniProt P11802); test: CDK4/Cyclin D assay; format: biochemical; details: Table 2
T2 construct: made in house; host or cells: insect cells co-infected with baculovirus vectors
In short: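 Insect-cell-expressed CDK4/cyclin D3 (50 nM) phosphorylating His-tagged Rb fragment (residues 386-928) with 25 μM [^32P]ATP in HEPES pH 7.4, MgCl2, 2% DMSO; 20 min at 30 °C, EDTA stop. Filter-captured 32P by phosphorimager; apparent Ki from competitive or tight-binding inhibition fits.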

CHK1 = molecular target: T3, CHK1 (Homo sapiens, UniProt O14757); test: CHK1 high-throughput screening; format: biochemical; details: for % inhibition @ 20 μM: Table 4, repeated entries per example; for inhibition at 20 µM: read-out: % inhibition @ 20 μM, Table 4, repeated entries per example
T3 sequence (O14757 1-476): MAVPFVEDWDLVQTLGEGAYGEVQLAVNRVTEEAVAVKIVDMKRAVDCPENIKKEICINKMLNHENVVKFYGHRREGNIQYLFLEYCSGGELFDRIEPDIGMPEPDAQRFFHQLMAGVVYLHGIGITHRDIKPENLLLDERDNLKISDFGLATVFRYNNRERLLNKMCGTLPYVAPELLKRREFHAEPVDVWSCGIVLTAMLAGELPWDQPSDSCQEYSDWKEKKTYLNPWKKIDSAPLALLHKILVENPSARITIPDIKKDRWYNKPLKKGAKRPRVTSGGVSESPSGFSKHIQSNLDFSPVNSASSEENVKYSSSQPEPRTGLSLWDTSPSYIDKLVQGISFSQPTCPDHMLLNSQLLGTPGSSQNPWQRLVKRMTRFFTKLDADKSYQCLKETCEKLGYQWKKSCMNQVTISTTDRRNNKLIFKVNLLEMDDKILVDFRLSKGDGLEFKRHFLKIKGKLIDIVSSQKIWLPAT

FGF-R1 = molecular target: T4, FGF-R1 (Homo sapiens, UniProt P11362, C488A/C584S/L457V); test: FGF-R spectrophotometric assay; format: biochemical; details: for inhibition at 1 µM: Table 3, % inh @ 1 uM, read-out: FGF-P Ki (nM) (% inh @ 1 uM)
T4 construct: starting from the endogenous methionine residue 456 to glutamate 766; made in house; host or cells: baculovirus vector expression system
Description: FGF-R1 Construct for Assay: The intracellular kinase domain of human FGF-R1 was expressed using the baculovirus vector expression system starting from the endogenous methionine residue 456 to glutamate 766, according to the residue numbering system of Mohammadi et al., Mol. Cell. Biol., 16, 977-989 (1996). In addition, the construct also has the following 3 amino acid substitutions: L457V, C488A, and C584S.
The spectrophotometric assay was carried out as described above for VEGF-R2, except for the following changes in concentration: FGF-R=50 nM, ATP=2 mM, and poly(E4Y1)=15 mM.

[2] = system: human umbilical vein endothelial cells (HUVEC); test: HUVEC proliferation assay; format: cell-based; details: Homo sapiens, HUVEC, Table 3
In short: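 Exponentially growing HUVEC were serum-starved 24 h (F12K + 1% FBS), pre-treated 1 h with compound (0.1% DMSO final), then stimulated with 6 ng/ml VEGF. Proliferation was read 72 h later by MTT reduction (A595). IC50 came from seven 0.5-log concentrations in triplicate; screens gave % inhibition relative to VEGF-only and starved wells.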

[3] = system: lung cancer cells (line MV522); test: Cancer cell proliferation (MV522) assay; format: cell-based; details: MV522, Table 3
LCK tyrosine kinase = molecular target: T5, LCK tyrosine kinase (Homo sapiens, UniProt P06239, C224D/P223M); test: LCK spectrophotometric assay; format: biochemical; details: Table 3, read-out: LCK (% inh @ 1 uM)
T5 construct: starting from amino acid residue 223 to the end of the protein at residue 509; made in house; host or cells: insect cells

[4] = molecular target: T6, unphosphorylated VEGF-R2Δ50 (FLVK) (Homo sapiens, UniProt P35968, DEL940-989/E990V); test: VEGF-R2 coupled spectrophotometric assay, unphosphorylated enzyme (FLVK); format: biochemical; details: Table 3; some entries 'Slow binder'
T6 construct: VEGF-R2Δ50 contains residues 806-939 and 990-1171; made in house; host or cells: baculovirus/insect cells
In short: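 Unphosphorylated VEGF-R2Δ50 (5 to 40 nM) with 20 mM poly(E4Y1), 3 mM ATP, 60 mM MgCl2, 2 mM MnCl2 in 200 mM Hepes pH 7.5. ADP production coupled via PK/LDH to NADH oxidation, read at 340 nm. Ki from activity at varying compound concentrations.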

[5] = molecular target: T7, phosphorylated VEGF-R2Δ50 (FLVK-P) (Homo sapiens, UniProt P35968, DEL940-989/E990V); test: VEGF-R2 coupled spectrophotometric (FLVK-P) assay; format: biochemical
T7 construct: VEGF-R2Δ50 contains residues 806-939 and 990-1171; made in house; host or cells: baculovirus/insect cells
In short: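 Baculovirus-expressed human VEGF-R2Δ50 (residues 806-939/990-1171, E990V) was autophosphorylated with 3 mM ATP, 40 mM MgCl2 for 2 h at 4° C. ADP formation was coupled via PK/LDH to NADH oxidation, read at 340 nm, with 5.1 mM poly(E4Y1), 1 mM ATP, 25 mM MgCl2, Hepes pH 7.5. Ki came from activity across compound concentrations.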

T6 sequence (P35968 with tags, fused parts or gaps DEL940-989/E990V limits assumed): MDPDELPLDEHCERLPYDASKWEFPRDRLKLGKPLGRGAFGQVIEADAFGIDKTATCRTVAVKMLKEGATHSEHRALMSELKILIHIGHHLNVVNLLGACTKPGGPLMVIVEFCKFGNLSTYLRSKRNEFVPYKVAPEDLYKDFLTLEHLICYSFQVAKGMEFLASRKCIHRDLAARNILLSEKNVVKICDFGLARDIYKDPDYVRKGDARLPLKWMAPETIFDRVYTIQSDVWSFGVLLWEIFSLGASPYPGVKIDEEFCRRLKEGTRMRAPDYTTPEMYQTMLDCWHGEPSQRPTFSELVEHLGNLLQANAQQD
T1 sequence (P35968 with tags, fused parts or gaps DEL940-989/E990V limits assumed): as above
T4 sequence (P11362 456-766 L457V/C488A/C584S): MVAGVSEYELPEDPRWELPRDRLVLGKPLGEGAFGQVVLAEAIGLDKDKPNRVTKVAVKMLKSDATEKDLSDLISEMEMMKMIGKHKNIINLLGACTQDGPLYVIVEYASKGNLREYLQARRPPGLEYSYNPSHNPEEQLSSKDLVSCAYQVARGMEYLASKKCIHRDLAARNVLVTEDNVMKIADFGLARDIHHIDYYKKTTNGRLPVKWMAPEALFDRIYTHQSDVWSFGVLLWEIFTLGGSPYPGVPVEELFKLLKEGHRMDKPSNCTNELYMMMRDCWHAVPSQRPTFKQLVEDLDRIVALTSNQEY
T2 sequence (P11802 whole entry): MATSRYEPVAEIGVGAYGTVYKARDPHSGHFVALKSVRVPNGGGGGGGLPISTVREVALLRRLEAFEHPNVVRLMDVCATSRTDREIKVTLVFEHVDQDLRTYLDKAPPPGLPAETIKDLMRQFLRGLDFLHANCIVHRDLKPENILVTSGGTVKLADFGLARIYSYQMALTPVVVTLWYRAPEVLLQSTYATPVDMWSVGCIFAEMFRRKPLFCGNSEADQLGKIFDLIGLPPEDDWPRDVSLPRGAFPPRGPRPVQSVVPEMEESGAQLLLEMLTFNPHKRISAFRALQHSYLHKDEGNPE
T2 sequence (P30281 whole entry partner): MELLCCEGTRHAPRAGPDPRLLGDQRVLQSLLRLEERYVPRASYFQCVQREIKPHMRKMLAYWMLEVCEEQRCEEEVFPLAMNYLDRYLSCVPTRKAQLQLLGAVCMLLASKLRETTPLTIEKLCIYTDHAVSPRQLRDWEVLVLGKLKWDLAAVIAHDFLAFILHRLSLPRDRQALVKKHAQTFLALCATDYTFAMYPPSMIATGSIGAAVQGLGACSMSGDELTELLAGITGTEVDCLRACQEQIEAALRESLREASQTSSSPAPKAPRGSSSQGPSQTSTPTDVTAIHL
T5 sequence (P06239 223-509 P223M/C224D): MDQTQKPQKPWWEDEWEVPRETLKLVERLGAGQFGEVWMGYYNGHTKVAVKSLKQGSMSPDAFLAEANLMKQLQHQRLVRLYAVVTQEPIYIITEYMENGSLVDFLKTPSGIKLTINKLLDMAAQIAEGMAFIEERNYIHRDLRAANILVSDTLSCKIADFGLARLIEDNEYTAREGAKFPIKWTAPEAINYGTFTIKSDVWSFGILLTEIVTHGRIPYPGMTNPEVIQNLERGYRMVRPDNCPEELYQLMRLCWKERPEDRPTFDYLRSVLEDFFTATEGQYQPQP
T7 sequence (P35968 with tags, fused parts or gaps DEL940-989/E990V limits assumed): as the sequence (P35968 with tags, fused parts or gaps DEL940-989/E990V limits assumed) above

inhibition at 1 µM (FGF-R1) [%] | inhibition at 1 µM (LCK tyrosine kinase) [%] | Ki [4] [nM] | Structure (SMILES) | IC50 [2] [nM] | further results
– | – | – | COc1ccc(-c2csc(-c3sc(Nc4ccc(S(N)(=O)=O)cc4)nc3N)n2)cc1 [A(2), 4-[4′-Amino-4-(4-methoxy-phenyl)-[2,5′]bithiazolyl-2′-ylamino]-benzenesulfonamide] | – | Ki [1]: 2900 nM; Ki (CDK2/Cyclin A complex): 1800 nM; Ki (CDK4/Cyclin D3 complex): 7300 nM; % inhibition @ 20 μM (CHK1): 2.6% and 7.6%; melting point: 195 to 198 °C
13 | 1 | – | COc1cccc(C(=O)Nc2cc(-c3noc(-c4sc(Nc5cc(OC)c(OC)c(OC)c5)nc4N)n3)c(F)cc2F)c1 [D(67), N-(5-{5-[4-Amino-2-(3,4,5-trimethoxy-pheny-1-amino)-thiazol-5-yl]-[1,2,4]oxadiazol-3-yl}-2,4-difluoro-phenyl)-3-methoxy-benzamide] | 4.1 | IC50 [3]: > 10000 nM
25 | 29 | 0.25 | Cc1cccc(C(=O)Nc2cccc(-c3noc(-c4sc(NC(=O)NC(C)C)nc4N)n3)c2)c1 [F(13), N-(3-{5-[4-Amino-2-(3-isopropyl-ureido)-thiazol-5-yl]-[1,2,4]oxadiazol-3-yl}-phenyl)-3-methyl-benzamide] | 16 | –
78 | 91 | 0.36 | CCn1nc(C)cc1C(=O)Nc1ccc(C)c(-c2noc(-c3sc(Nc4cccc(CN5CCCC5)c4)nc3N)n2)c1 [B(9)] | – | –
23 | 72 | 0.56 | COc1cccc(C(=O)Nc2ccc(C)c(-c3noc(-c4sc(Nc5ccc(N6CCOCC6)nc5)nc4N)n3)c2)c1 [B(36), 3-[3-[(3-methoxybenzoyl)amino]-6-methyl-phenyl]-5-[2-[3-amino-6-(4-morpholinyl)-pyridinyl]-4-amino-5-thiazolyl]-1,2,4-oxadiazole] | – | –
– | – | – | COc1cc(O)cc(-c2csc(-c3sc(Nc4cc(OC)c(OC)c(OC)c4)nc3N)n2)c1 [A(19), 3-[4′-Amino-2′-(3,4,5-trimethoxy-phenylamino)-[2,5′]bithiazolyl-4-yl]-5-methoxyphenol] | – | Ki ([5]; Table 2, spectrophotometric assay): 4 nM; Ki (FGF-R1; Table 2): 390 nM; inhibition at 20 µM (CHK1): 78.5%; melting point: 208 to 210 °C
28 | 2 | 0.5 | COc1cccc(C(=O)Nc2cc(-c3csc(-c4sc(NC(=O)NCCCN5CCCC5=O)nc4N)n3)c(F)cc2F)c1 [O(15), N-[5-(4′-Amino-2′-{3-[3-(2-oxo-pyrolidin-1-yl)-propyl]-ureido}-[2,5′]bithiazolyl-4-yl)-2,4-difluoro-phenyl]-3-methoxy-benzamide] | – | –
39 | 34 | 0.26 | COc1cccc(C(=O)Nc2ccc(C)c(-c3noc(-c4sc(Nc5ccccc5)nc4N)n3)c2)c1 [B(35)] | – | –
– | – | – | Nc1nc(Nc2ccc(S(N)(=O)=O)cc2)sc1-c1nc(-c2cc(-c3ccc(Cl)cc3Cl)co2)cs1 [A(28), 4-{4′-Amino-4-[4-(2,4-dichloro-phenyl)-furan-2-yl]-[2,5′]bithiazolyl-2′-ylamino}-benzenesulfonamide] | – | Ki [1]: 131000 nM; Ki (CDK2/Cyclin A complex): 13000 nM; Ki (CDK4/Cyclin D3 complex): 24000 nM; % inhibition @ 20 μM (CHK1): 9.3% and 0.4%; melting point: 225 to 230 °C (dec.)
9 | 3 | 0.19 | CNC(=O)Nc1nc(N)c(-c2nc(-c3cc(NC(=O)c4cccc(OC)c4)c(F)cc3F)no2)s1 [O(4), N-(5-{5-[4-Amino-2-(3-methyl-ureido)-thiazol-5-yl]-[1,2,4]oxadiazol-3-yl}-2,4-difluoro-phenyl)-3-methoxy-benzamide] | 0.64 | inhibition at 0.05 µM ([5]; Table 3, at 50 nM): 87%
28 | 7 | 0.33 | COc1cccc(C(=O)Nc2cc(-c3noc(-c4sc(NC(=O)NCCCN5CCCC5=O)nc4N)n3)c(F)cc2F)c1 [O(2)] | – | –
– | – | – | Nc1nc(Nc2ccc(S(N)(=O)=O)cc2)sc1-c1nc(-c2cccc(O)c2)cs1 [A(16), 4-[4′-Amino-4-(3-hydroxy-phenyl)-[2,5′]bithiazolyl-2′-ylamino]-benzenesulfonamide] | – | Ki [1]: 22 nM; Ki (CDK2/Cyclin A complex): 220 nM; Ki (CDK4/Cyclin D3 complex): 980 nM; inhibition at 20 µM (CHK1): 35.4%; melting point: 205 to 209 °C (dec.)
10 | 0 | – | COCC(C)NC(=O)Nc1nc(N)c(-c2nc(-c3cc(NC(=O)c4cccc(OC)c4)c(F)cc3F)cs2)s1 (centres unmarked) [O(14), N-(5-{4′-Amino-2′-[3-(2-methoxy-1-methyl-ethyl)-ureido]-[2,5′]bithiazolyl-4-yl}-2,4-difluoro-phenyl)-3-methoxy-benzamide] | 16 | –
10 | 11 | 1.4 | COc1cc(Nc2nc(N)c(-c3nc(-c4cccc(NC(=O)c5cnc6ccccc6c5)c4)cs3)s2)cc(OC)c1OC [D(60), Quinoline-3-carboxylic acid {3-[4′-amino-2′-(3,4,5-trimethoxy-phenylamino)-[2,5′]bithiazolyl-4-yl]-phenyl}-amide] | > 100 | –
9 | 4 | – | COc1cc(Nc2nc(N)c(-c3nc(-c4cccc(NC(=O)c5ncoc5-c5ccccc5)c4)cs3)s2)cc(OC)c1OC [D(61), 5-Phenyl-oxazole-4-carboxylic acid {3-[4′-amino-2′-(3,4,5-trimethoxy-phenylamino)-[2,5′]bithiazolyl-4-yl]-phenyl}-amide] | 165 | IC50 [3]: > 10000 nM
47 | 42 | 0.14 | CNC(=O)Nc1nc(N)c(-c2nc(-c3cccc(NC(=O)c4cccc(Cl)c4)c3)cs2)s1 [F(10), N-{3-[4′-Amino-2′-(3-methyl-ureido)-[2,5′]bithiazolyl-4-yl]-phenyl}-3-chloro-benzamide] | 8.5 | –
